Entries after “also recorded” stand apart in the source; their conditions may differ.
What was measured:
[1] = test system: human progenitor cells; assay: Proteoglycan synthesis in micromass cultures, 5 days; type: cell-based; details: 5 day micromass; for proteoglycan synthesis / chondrogenic differentiation: dextran polysulfate 1-20 micrograms/mL, FIG. 19B; for proteoglycan synthesis (35SO4 incorporation into PGs): hyaluronan in place of PPS, FIG. 19A
Excerpt: FIG. 17. Bar graphs showing the concentration dependent effects of PPS on proteoglycan synthesis by human progenitor cells in micromass cultures for 5 days. Data is presented as 35S-GAG radioactivity and as a percentage of control taken as 100%. * P<0.05 relative to control.
FIG. 19. Bar graphs showing the concentration dependent effects of (A) Hyaluronan (Supartz™) and (B) Dextran Polysulfate on proteoglycan synthesis by human progenitor cells in micromass cultures for 5 days. Data is presented as ^35S-GAG radioactivity and as a percentage of control, taken as 100% or as DPM/ug DNA. * P<0.05 relative to control.
The technique used was based on that described by (Denker A E, Haas A R, Nicoll S B and Tuan R S. Chondrogenic differentiation of murine C3H10T1/2 multipotential progenitor cells: I. Stimulation by bone morphogenetic protein-2 in high density micromass cultures. Differentiation (1999); 64: 67-76). Briefly murine Progenitor cells (cell lines C3H10T1/2 or ATDC5) purchased from RIKEN Cell Bank (Tsukuba, Japan) or human immunoselected Stro-1+ Progenitor cells (Mesoblast Ltd, Melbourne, Australia) Ten microlitres (10 μl) of a suspension of the progenitor cells (1×10^7 cells/ml in Ham's F12 medium+10% FBS) were applied to individual wells of a 24-well plates. After incubatation at 37° C. in a humidified atmosphere of 5% CO2/95% air for 2-3 hours, 900 μl of Ham's F12 medium (10% FBS) and 100 μl of PPS solution in the same medium were added slowly into the wells to afford final concentrations of PPS in each of 0, 0.1, 0.5, 1.0, 2.5, 5.0, 10.0, 20.0 μg/ml alone or in combination with rhNC4 (0, 0.1, 0.5, 1.0, 2.5, 5.0, 10.0, 25.0 μg/ml). Each drug concentration was repeated in triplicate. The cells were maintained in culture for up to 10 days. The medium with/without drugs was changed every 3 days but 24 hours before termination of the experiment 80 μl of 50 μCi/ml ^35S-H2SO4 was added to achieve a final ^35SO4 concentration of 5 μCi/ml. The following day, the cells in one of the plates were trypsinized with 150 μl/well of 2.5% trypsin and separated from the medium by centrifugation at 800 g for 10 minutes, washed with 500 μl of 1×PBS and stored in liquid nitrogen for RNA and/or DNA extraction and analysis. Media and supernatants were combined in one tube for each concentration of PPS used. To the tubes was added, 200 μl of 5× Papain solution [2.5 mg/ml Papain, 7.9 mg/ml L-Cysteine in Papain buffer (0.1 M NaAC, 5 mM EDTA, pH6.0)] and the solution incubated at 65° C. for 2 hours. After papain digestion, Four aliquots of 200 μl of digested solution were transferred to a 96-well plate (200 μl/well). The ^35S-GAG released by the digestion step were separated from the free ^35SO4 by adding 20 μl 5% CPC and 10 μl 1 mg/ml CSA with gentle shaking at 300 rpm RT for 20-30 min to precipitate the ^35S-GAG-CPC complexes. The precipitates were collected by filtered through glass fibre filters using a cell harvester. The filters were then air-dried and discs punched to scintillation vials. 3 ml/vial scintillation cocktail liquid was added and vortexed for 30-45 sec. The radioactivity of ^35S—SO4 incorporated the ^35S-GAG-CPC complexes was measured by scintillation counting.
Data is presented as 35S-GAG radioactivity and as a percentage of control taken as 100%. * P<0.05 relative to control.
Similar experiments were undertaken using Hyaluronic acid (SuperArtz (SKK, Tokyo, Japan)) and Dextran polysulfate (MW=5000) (Sigma, Sydney, Australia) in place of PPS. […] Data is presented as 35S-GAG radioactivity and as a percentage of control taken as 100% or as DPM/ug DNA. * P<0.05 relative to control.

[2] = test system: Primary human progenitor cells; assay: Progenitor cell proliferation, WST-1 assay; type: cell-based; details: HA alone; day 3 and day 5 cultures; FIG. 20
Protocol: (§1) FIG. 4. The Effects of Pentosan Polysulfate (PPS) on Human Progenitor cell Proliferation. Primary human progenitor cells were cultured in 24 well plates in growth media supplemented with PPS at the indicated concentrations. At various time intervals (day 1, 3, 6), the growth media was removed and replaced with phenol red free media containing the tetrazolium salt WST-1 for 2 hours at 37° C./5% CO2. WST-1 is cleaved by mitochondrial dehydrogenase in viable cells to produce a formazan dye that can be detected using an ELISA plate reader at a wavelength of 450 nm. Absorbance at 450 nm for each time point is shown for all concentrations of PPS.
FIG. 20. […] At various time intervals (day 3 & 5), the growth media was removed and replaced with phenol red free media containing the tetrazolium salt WST-1 for 2 hours at 37° C./5% CO2. Absorbance at 450 nm for each time point is shown for all concentrations of PPS and HA.
as §1, with “Primary” for “FIG. 4. The Effects of Pentosan Polysulfate (PPS) on Human Progenitor cell Proliferation. Primary”

[3] = test system: ATDC5 cell; assay: Kinetics of ATDC5 cell growth over 13 days; type: cell-based, murine; details: rhNC4 (batch PBA-1200P) 5 ug/ml or Insulin 10 ug/ml; 20,000 cells per well at Day 0; FIG. 30
Protocol: FIG. 30. A bar graph of the kinetics of ATDC5 cell growth induced by rhNC4 (batch PBA-1200P) (5 ug/ml) or Insulin (10 ug/ml) relative to control over 13 days. 20,000 cells per well were seeded at Day 0 (Start) with medium changes every 48 hrs. Insulin treated cultures reached confluence on day 6 and PBA-1200P on day 9. Control cultures also reached confluence on day 9 but in contrast to cultures containing insulin or PBA-1200P ceased to undergo replication.

[4] = test system: Murine ATDC5 cell line; assay: Proteoglycan biosynthesis (35S-GAG) in pellet cultures; type: cell-based; details: FIG. 14; for chondrogenic effect / proteoglycan synthesis: Heparin 1.25-20 ug/mL, 6 day pellet culture
Excerpt: FIG. 12. A bar graph of the concentration dependent effects of Pentosan Polysulfate (PPS), on the biosynthesis of Proteoglycans (PGs) as determined by the incorporation of radioactively labelled sulfate into the sulfated glycosaminoglycans (^35S-GAG) of PGs in 6 day pellet cultures of murine progenitor cells (ADTC-5). *=p<0.05 relative to control.
FIG. 22. A bar graph of the concentration dependent effects of rhNC4 (batch PBA-1202P) expressed by K. lactis, in the absence (maintenance media, MM) and presence of insulin (10 micrograms/mL) (differentiation media, DM), on the biosynthesis of Proteoglycans PGs) in pellet cultures of ATDC5 cells. Data is shown as the % change relative to controls taken to be 100%.
Murine Progenitor cells (cell lines C3H10T1/2 or ATDC5) purchased from RIKEN Cell Bank (Tsukuba, Japan) or human immunoselected Stro-1+ Progenitor cells (Mesoblast Ltd, Melbourne, Australia) were seeded in 2 ml screw-capped sterile centrifuge tubes and the total volume made-up to 1 ml with DMEM-High glucose medium containing 10% FBS. Progenitor cells were then centrifuged at 500 g for 10 min in a swing-out rotor at room temperature. The screw caps were loosened and the tubes placed in an incubator at 37° C., in a 5% CO2/95% air moist atmosphere. The pellets generally formed within 24 hours. Medium was changed daily in the first two days, then once every 2-3 days thereafter. On day 5 the medium was removed and to each tube was added 1 ml with DMEM-High glucose medium containing 10% FBS, 5.0 μCi/ml ^35S-H2SO4 and various concentrations of PPS (0, 0.1, 0.5, 1.0, 2.5, 5.0, 10.0, 20.0, μg/ml) (FIG. 12-15) or rhNC4 (0, 0.1, 0.5, 1.0, 2.0 μg/ml) (FIG. 22). Triplicate cultures were used for all concentration of drugs. The screw caps were loosened and the tubes placed in an incubator at 37° C., in a 5% CO2/95% moist air atmosphere […]. On day 6, 200 μl of stock papain solution [2.5 mg/ml papain, 7.9 mg/ml L-Cystein in papain buffer (0.1 M NaAC, 5 mM EDTA, pH6.0)] was added to each tube. The tubes were tightly capped and incubated at 65° C. for 2 hours. After papain digestion, 4 replicates of 200 μl of papain digested solution were separately transferred to a 96-well micro-titre plate (200 μl/well). The remaining solution was used for the DNA fluorometric assays which were undertaken in triplicate as described above. Biosynthesis of ^35S-GAGs was determined as described for the monolayer cultures and the results expressed as ^35-S-GAGs/μg DNA.
Data is shown as the % of controls taken to be 100%.

Dextran polysulfate
proteoglycan synthesis / chondrogenic differentiation [1]: downregulate or repress differentiation | proteoglycan synthesis / chondrogenic differentiation ([1]; listed as Dextran Sulfate (DS)): inhibited PG synthesis | proteoglycan synthesis / chondrogenic differentiation ([1]; listed as dextran sulfate): concentration dependent reduction in the production of proteoglycans

Hyaluronan [HA]
progenitor cell proliferation (WST-1) [2]: absence of any significant stimulatory effect | proteoglycan synthesis (35SO4 incorporation into PGs) [1]: appeared to increase synthesis of proteoglycans but not strongly | proteoglycan synthesis (35SO4 incorporation into PGs) ([1]; listed as hyaluronan (HA)): low level of ^35SO4 incorporation into PGs

Insulin
day on which cultures reached confluence [3]: 6 days

Heparin
chondrogenic effect / proteoglycan synthesis [4]: does not exhibit a chondrogenic effect; also recorded: failed to significantly stimulate proteoglycan synthesis | chondrogenic effect / proteoglycan synthesis ([4]; listed as heparin): suppressing chondrogenesis | proteoglycan synthesis ([4]; Heparin 2.5 ugrams/mL, pellet culture): little activity | proteoglycan synthesis ([4]; Heparin at higher concentrations (above 2.5 ugrams/mL)): may cause inhibition

Reference: patent US9888679B2, “Protection of progenitor cells and regulation of their differentiation” (Proteobioactives Pty Ltd, priority 2007, dated 2018)
